The nature of this experiment: Deodorizing effect on malodor gas, closed circulation system. Conditions: 1 mL on absorbent cotton, 2 hours of working. Here is the method:
Into a 4 L odorless bag, 4 L of air was included by means of an air pump. Each malodor gas (ammonia, trimethylamine, hydrogen sulfide, or methyl mercaptan) was injected thereinto by an injection syringe to regulate a gas concentration. The bag was set at a test apparatus of closed circulation system fitted with an air pump and the air pump was worked at an air amount of about 1000 mL/minute. One milliliter of the above deodorant composition was supported on an absorbent cotton (0.2 g) and the cotton was set at the discharging side of the air pump. After 2 hours of working, the remaining amount of the malodor gas in the system was measured using a dedicated gas detecting tube (Gastech Corporation) and a deodorization rate was calculated according to the following expression.
As a comparative example, an absorbent cotton impregnated with 1 mL of a 20 mM aqueous solution of gallic acid was set at the discharging side of the air pump, instead of the absorbent cotton on which the above deodorant composition was supported. Then, the test was conducted similarly and the deodorization rate was calculated.
Deodorization rate (%)=100×{1−(A/B)}
In the above expression, A means the measured concentration of the malodor components and B means the concentration of the malodor components measured in the control. The control is the case that an absorbent cotton was impregnated with 1 mL of water instead of 1 mL of the above deodorant composition.

The structures appear in SMILES notation.

The compound `O=C(O)c1cc(O)c(O)c(O)c1` [Gallic acid aqueous solution, gallic acid] registered a Deodorization rate (Ammonia, initial concentration 60 ppm) of 85.0%; a Deodorization rate (Hydrogen sulfide, initial concentration 120 ppm) of 5.0%; a Deodorization rate (Methyl mercaptan, initial concentration 100 ppm) of 0%; a Deodorization rate (Trimethylamine, initial concentration 130 ppm) of 70.0%.
